According to US20110118269A1, “FUSED PYRAZINE COMPOUNDS AS THEIR SALTS, USEFUL FOR THE TREATMENT OF DEGENERATIVE AND INFLAMMATORY DISEASES” (priority 2009, published 2011):
In brackets after ≈: the same amount, converted by molar mass.

Legend:
[1] = system: TNF-α; experiment: Septic shock model (LPS induced TNF alpha release); format: in vivo, BALB/cJ female mice; settings: 3, 10 and 20 mg/kg, po, once, 30 min before LPS
Method: Injection of lipopolysaccharide (LPS) induces a rapid release of soluble tumour necrosis factor (TNF-α) into the periphery. This model is used to analyse prospective blockers of TNF release in vivo.
Six BALB/cJ female mice (20 g) per group are treated at the intended dosing once, po. Thirty minutes later, LPS (15 mg/kg; E. coli serotype 0111:B4) is injected ip. Ninety minutes later, mice are euthanized and blood is collected. Circulating TNF alpha levels are determined using commercially available ELISA kits. Dexamethasone (5 mg/kg) is used as a reference anti-inflammatory compound. Compound 1 is efficacious at 3, 10 and 20 mg/kg, po.

[2] = Aqueous solubility determination (Example 4); format: physicochemical
Method: Each salt is suspended in water and shaken for 24 h at 22° C. and 400 rpm. The resulting suspensions are filtered (0.2-μm filter). The obtained solids are analyzed by FT Raman. The pH of the filtrate is measured, and the concentration of the free base is determined by HPLC.

[3] = Thermodynamic aqueous solubility study by HPLC (Example 5); format: physicochemical; settings: thermodynamic from solid
Excerpt: Quantitation is done by HPLC with reference to a standard calibration curve. […] If there is sufficient solid remaining, the XRPD is collected.

[4] = system: MMP13 expression in SW1353 cells; experiment: IL-1/OSM driven MMP13 expression in SW1353 cells (MMP13 ELISA); format: cell-based; settings: Homo sapiens, IL-1β and OSM, 48 hr
Method: A 384 well format ELISA for measurement of MMP13 was developed. Various primary antibodies are tested, as well as various ELISA protocols. The following protocol is developed and validated to measure MMP13 levels in supernatant of cell cultures in 384 well plates.
Black maxisorb 384 well plates (Nunc 460518) are coated with 35 μL of a buffered solution containing 1.5 μg/mL anti-MMP13 antibody MAB511 (R&D systems). The antibody is diluted in carbonate-bicarbonate coating buffer (1.59 g Na2CO3 (Sigma S-7795) and 2.93 g NaHCO3 (Sigma S-5761) in 1 L MilliQ water, adjusted to pH 9.6). […] Substrate solution is prepared as follows: OmniMMP Fluorescent substrate (Biomol P-126) stock solution (2 mM in DMSO, stored at −20° C.) is diluted in 1× OmniMMP buffer (10× OmniMMP buffer: 500 mM Hepes (Sigma H4034), 100 mM CaCl2 (Sigma C5080), 0.5% Brij35 (Sigma 430 AG-6; adjusted to pH 7.0) to a final concentration of 0.01 mM. After an overnight incubation at 37° C., the active MMP13 in the sample has cleaved the substrate and released fluorescence. Readout is performed on the EnVision (Perkin Elmer) using 320 nm excitation/405 nm emission filters. […]

With `CC(C)N1C[C@@H]2C[C@H]1CN2c1ccc(Nc2ncc(-c3coc(C(N)=O)c3)n3ncnc23)cc1` [Compound 1, 4-{8-[4-((1S,4S)-5-Isopropyl-2,5-diaza-bicyclo[2.2.1]hept-2-yl)-phenylamino]-[1,2,4]triazolo[1,5-a]pyrazin-5-yl}-furan-2-carboxamide] as the compound, how does the “efficacy in septic shock model (circulating TNF alpha levels)” value [1] read?
The value was “efficacious”.

And the “Filtrate pH” value ([2]; filtrate of the aqueous suspension after 24 h)?
Its value is 6.9.

And the solubility at 24 h ([2]; thermodynamic from solid, water, shaken 24 h at 22° C., free base concentration by HPLC, read-out: Measured solubility)?
The solubility at 24 h was 70 µg/mL (≈ 153 µM).

What about the solubility ([3]; buffer pH 2.0, pH 2, aqueous buffer) of the same compound?
Its solubility is 300 µg/mL (≈ 654 µM).

What about the solubility ([3]; buffer pH 7.4, pH 7.4, aqueous buffer) of the same compound?
The solubility was 10 µg/mL (≈ 21.8 µM).

And the solubility ([3]; pure water, water)?
The solubility was 10 µg/mL (≈ 21.8 µM).

And the IC50 [4]?
The IC50 was 50 to 500 nM.
